The NIST ThermoML archive (doi:10.1021/acs.jced.5b00820)

Assay: xn = mol fraction of the nth substance listed
Settings: 102.2 kPa, Liquid, Vibrating tube method

C[Si](C)(O[Si](C)(C)c1ccccc1)c1ccccc1 [1,3-diphenyltetramethyldisiloxane] + C=C[Si]1(C)O[Si](C)(C=C)O[Si](C)(C=C)O[Si](C)(C=C)O1
mass density [kg/m3]
Settings	308.15 K	313.15 K	318.15 K	323.15 K	328.15 K
x1 = 0.0511	972.67	967.57	962.46	957.29	952.25
x1 = 0.1004	972.68	967.63	962.58	957.53	952.52
x1 = 0.1503	972.67	967.67	962.67	957.67	952.66
x1 = 0.2	972.66	967.72	962.77	957.83	952.88
x1 = 0.2537	972.63	967.74	962.86	957.97	953.1
x1 = 0.3001	972.56	967.72	962.9	958.06	953.26
x1 = 0.3507	972.42	967.63	962.84	958.04	953.25
x1 = 0.4002	972.3	967.56	962.83	958.06	953.33
x1 = 0.4503	972.13	967.44	962.77	958.08	953.42
x1 = 0.4999	971.87	967.23	962.58	957.92	953.25
x1 = 0.5501	971.69	967.12	962.54	957.94	953.39
x1 = 0.597	971.42	966.89	962.34	957.8	953.24
x1 = 0.6498	971.17	966.7	962.23	957.76	953.3
x1 = 0.7005	970.8	966.35	961.92	957.49	953.06
x1 = 0.7492	970.45	966.08	961.71	957.33	952.96
x1 = 0.8001	970.05	965.73	961.41	957.09	952.78
x1 = 0.8497	969.63	965.36	961.11	956.85	952.59
x1 = 0.8999	969.05	964.82	960.59	956.35	952.09
x1 = 0.9502	968.57	964.4	960.23	956.03	951.87
x1 = 1	968.05	963.94	959.84	955.74	951.65

C[Si](C)(O[Si](C)(C)c1ccccc1)c1ccccc1 [1,3-diphenyltetramethyldisiloxane] + C=C[Si](C)(C)O[Si](C)(C)C=C
mass density [kg/m3]
Settings	308.15 K	313.15 K	318.15 K	323.15 K	328.15 K
x1 = 0.0502	809.57	804.7	799.79	794.89	789.94
x1 = 0.1	820.63	815.84	811.01	806.21	801.35
x1 = 0.1487	831.07	826.38	821.62	816.9	812.12
x1 = 0.2002	841.7	837.11	832.41	827.77	823.05
x1 = 0.2498	851.61	847.08	842.45	837.87	833.22
x1 = 0.3	861.28	856.78	852.19	847.66	843.06
x1 = 0.3503	870.64	866.2	861.68	857.2	852.68
x1 = 0.3994	879.46	875.05	870.55	866.12	861.63
x1 = 0.4502	888.32	883.96	879.52	875.17	870.72
x1 = 0.5001	896.73	892.42	888.02	883.7	879.29
x1 = 0.5498	904.84	900.61	896.23	891.95	887.57
x1 = 0.6002	912.8	908.56	904.21	899.93	895.59
x1 = 0.6502	920.47	916.26	911.95	907.71	903.38
x1 = 0.7004	927.9	923.73	919.47	915.27	911
x1 = 0.7504	935.1	930.94	926.72	922.51	918.26
x1 = 0.8003	942.07	937.9	933.7	929.52	925.3
x1 = 0.8498	948.8	944.66	940.48	936.33	932.14
x1 = 0.8986	955.23	951.09	946.94	942.83	938.64
x1 = 0.9502	961.82	957.69	953.57	949.47	945.33
x1 = 1	967.99	963.87	959.76	955.68	951.57

C[Si](C)(O[Si](C)(C)c1ccccc1)c1ccccc1 [1,3-diphenyltetramethyldisiloxane] + C[Si]1(C)O[Si](C)(C)O[Si](C)(C)O[Si](C)(C)O1
mass density [kg/m3]
Settings	308.15 K	313.15 K	318.15 K	323.15 K	328.15 K
x1 = 0.05	940.79	935.08	929.44	923.79	918.1
x1 = 0.0999	942.6	937.01	931.46	925.91	920.32
x1 = 0.1503	944.43	938.95	933.49	928.04	922.57
x1 = 0.2005	946.19	940.8	935.45	930.1	924.72
x1 = 0.2507	947.88	942.59	937.33	932.06	926.77
x1 = 0.2963	949.39	944.19	939.02	933.84	928.63
x1 = 0.3509	951.16	946.05	940.97	935.88	930.78
x1 = 0.4001	952.67	947.66	942.65	937.65	932.62
x1 = 0.4471	954.04	949.1	944.16	939.26	934.29
x1 = 0.4968	955.6	950.74	945.91	941.08	936.23
x1 = 0.5512	957.17	952.39	947.64	942.9	938.15
x1 = 0.6003	958.51	953.82	949.15	944.46	939.79
x1 = 0.6502	959.83	955.22	950.62	946.01	941.41
x1 = 0.7001	961.15	956.6	952.09	947.56	943.03
x1 = 0.7497	962.4	957.92	953.48	949.04	944.59
x1 = 0.8	963.64	959.25	954.87	950.49	946.11
x1 = 0.85	964.8	960.48	956.18	951.88	947.58
x1 = 0.896	965.82	961.53	957.3	953.03	948.8
x1 = 0.9497	967	962.79	958.63	954.45	950.29
x1 = 1	968.05	963.92	959.8	955.69	951.58

C[Si](C)(O[Si](C)(C)c1ccccc1)c1ccccc1 [1,3-diphenyltetramethyldisiloxane] + C[Si]1(CCC(F)(F)F)O[Si](C)(CCC(F)(F)F)O[Si](C)(CCC(F)(F)F)O1
mass density [kg/m3]
Settings	308.15 K	313.15 K	318.15 K	323.15 K	328.15 K
x1 = 0.0501	1225.8	1219.39	1212.88	1206.4	1199.88
x1 = 0.1001	1214.52	1208.2	1201.82	1195.45	1189.07
x1 = 0.1499	1203.4	1197.13	1190.88	1184.63	1178.37
x1 = 0.2005	1191.71	1185.57	1179.46	1173.35	1167.25
x1 = 0.2497	1180.12	1174.1	1168.1	1162.13	1156.13
x1 = 0.3	1167.98	1162.08	1156.21	1150.35	1144.49
x1 = 0.3431	1157.27	1151.54	1145.79	1140.01	1134.24
x1 = 0.4001	1142.74	1137.19	1131.56	1125.93	1120.32
x1 = 0.45	1130.1	1124.64	1119.13	1113.61	1108.09
x1 = 0.4998	1117.1	1111.69	1106.32	1100.93	1095.54
x1 = 0.5482	1104.11	1098.84	1093.55	1088.31	1083.03
x1 = 0.5996	1089.99	1084.84	1079.71	1074.57	1069.43
x1 = 0.6501	1075.78	1070.7	1065.65	1060.62	1055.6
x1 = 0.7	1061.47	1056.57	1051.69	1046.82	1041.93
x1 = 0.75	1046.74	1041.96	1037.22	1032.47	1027.7
x1 = 0.8001	1031.67	1027.02	1022.41	1017.79	1013.17
x1 = 0.8499	1016.33	1011.73	1007.33	1002.84	998.35
x1 = 0.8998	1000.6	996.22	991.87	987.37	983.15
x1 = 0.95	984.46	980.22	976.02	971.79	967.58
x1 = 1	967.9	963.8	959.75	955.65	951.57
